Experimental findings from patent publication US9622469B2, “Crosslink breakers for preservation of biological substances” (priority 2013, dated 2017) are described below.

The nature of series [1]: NHC-mediated reaction with α-keto aldehyde phenylglyoxal (16), Method B. In kind it is biochemical. The note with it: isolated yield with respect to 2. On the procedure: (§1) 60 mM solution of dicarbonyl substrate (45 μmol) in MeCN (0.75 ml) was added to 20 mM solution of NHC (15 μmol) in 0.15 M pH 7.4 sodium phosphate buffer (0.75 ml) and kept stirred at 37° C. At stated times, 75 μl aliquots were taken, diluted with 50% MeCN/H2O (425 μl) and analyzed by LCMS with 2,4-dihydroxyquinoline (248 μM) as an internal standard. The cleavage products were quantified by peak integration against the calibration curves.
Phenylglyoxal hydrate (16; 114 mg, 0.75 mmol, 2 eq) was added to a solution of ALT-711 (2; 100 mg, 0.37 mmol) in 50% MeCN/0.15 M pH 7.4 phosphate buffer (total vol. 37 ml) and kept stirred at room temperature for 15 mins. The reaction mixture was cooled to −20° C. to precipitate out sodium phosphate as white crystals. The supernatant was transferred, and the residue was washed with MeCN and combined with the supernatant. This yellow clear solution was concentrated at room temperature to remove MeCN and purified by HPLC (16-27MeCN over 31 min). […]
Reactions involving α-keto aldehyde derivatives 16 and 17 followed an unexpected course. Treatment of these substrates with 2 led to instantaneous, high-yield production of a diastercomeric mixture of cycloadducts (19 and 20) that decompose to complex mixtures under the reaction conditions with half-lives of approximately 3 h Structures were determined based on in-depth NMR analysis (see Supplementary Material).

The next series concerns circulating stored RBCs. Put plainly: Post-transfusion recovery of stored RBCs (flow cytometry). The format is in vivo, mouse. To be noted: blood stored 14 days; 24 hours after transfusion; listed as OCR6043. As for the experimental part:
Leuko-reduced mouse blood was stored under typical storage conditions for up to 14 days, in either OCR6043, control compound, or without any treatment. FIG. 2A illustrates an analysis of glucose in the serum from the stored blood was evaluated using a glucose oxidase enzymatic assay. […] FIG. 2B illustrates the AGE precursor levels on RBCs were measured using a dicarbonyl-specific fluorophore that was developed in-house. The time dependent increase in the AGE precursor levels was dampened in the presence of OCR6043. FIG. 2C illustrates mouse blood that was stored for 14 days, was evaluated for its immunogenicity upon transfusion, by testing for IgGs against an alloantigen on the RBCs (HOD=HEL-OVA-Duffy).
Using the transfusion methodology described in Hendrickson et al., it was possible to identify the surviving circulating RBCs using flow cytometry.

Series [2] is described as follows: Stability studies of NHC precursors under the PPD cleavage reaction conditions. In kind it is physicochemical. The note with it: exposure to PPD, Method B conditions. The source says:
Instead, 7 gave rise predominantly to an oxalamide derivative, which is believed to form via dimerization and oxidation of intermediate carbenes. […] Stability studies afforded additional insights.
In cleavage of PPD with ALT-711 (2), we detected several decomposition products of the catalyst that appear to be adducts between 2 and an acetyl group, the remainder of PPD following the release of benzoic acid. One adduct that has been isolated and characterized explains why the concentration of ALT-711 diminishes after cleaving PPD while the benzyl counterpart (4) behaves as a stable catalyst. Instead of liberating acetaldehyde and re-entering the catalytic cycle, oxidation of alcohol 13 to the corresponding methyl ketone followed by an aldol condensation with the phenyl ketone gives rise to a thiazolopyridinium derivative (see Supplementary Material for details).

The nature of series [3]: Cleavage of PPD (3) to benzoic acid by NHC precursors, Method B (MeCN co-solvent). The format is biochemical. As for the experimental part: (§2) Dicarbonyl cleavage reactions were performed using either the method described in Vasan et al., An agent cleaving glucose-derived protein crosslinks in vitro and in vivo, Nature (1996) Vol. 382, pp. 275-278 (Method A) or a modified method with MeCN as a co-solvent (Method B).
as §1
Thus, our first goal in these studies was to assess the ability of various NHC precursors to induce the degradation of the dicarbonyl model substrate (PPD, 3). To this end, we screened the thiazolium (4-6), benzothiazolium (7), triazolium (8,9) and imidazolium (10) halide substructures shown in Table 1.

Series [4] in a line: Cleavage of PPD by NHC precursors, Method A (alcoholic co-solvent). The format is biochemical. The note with it: co-solvent MeOH. On the procedure: as §2
PPD (21 μl, 156 μmol) was added to a murky solution of NHC (2 or 4, 71 μmol) in 50% MeOH/0.5 M pH 7.4 sodium phosphate buffer (3.5 ml/3.5 ml; final conc. 10 mM NHC, 22 mM PPD) and kept stirred at 37° C. Approximately 0.5 ml aliquots were taken at stated times and analyzed by HPLC. Experiments using EtOH or iPrOH as a co-solvent were done in the same manner. Concentrations of benzoic acid and benzoate esters were determined by peak integration against the calibration curves.
Having learned that ALT-711 performed best among NHCs evaluated for PPD cleavage, we sought to test its substrate scope versus its N-benzyl counterpart (4). We therefore measured product distribution and yield while varying the co-solvent used to solubilize dicarbonyl substrates. As summarized in Table 2, we first investigated the performance of alcoholic co-solvents in PPD cleavage reactions. […] Despite this, however, the product distributions differed substantially: ALT-711 (2) predominantly afforded benzoic acid (PhCO2H:PhCO2Me=3.2:1, Entry 2), whereas 4 mostly gave rise to methyl benzoate (PhCO2H:PhCO2Me=1:2.2, Entry 4). Further replacement of the co-solvent with EtOH and i-PrOH in 4-catalyzed reactions led to a decrease in the proportion of ester production, still without altering overall yield (Entries 5 and 6).

Series [5] can be described thus: NHC-mediated cleavage of benzil (15), Method B. In kind it is biochemical. To be noted: LCMS, with respect to dicarbonyl. As for the experimental part: as §1
(§3) Our efforts to investigate the scope of thiazolium salt-mediated reactions with dicarbonyls began with bis-alkyl diketone 14 (Table 3, Entry 1). This substrate is cleaved cleanly by 2, and affords acid 18 in 82% yield. NHC precursor 4, on the other hand, provides 18 in only 14% yield (Entry 2). The efficiency of dicarbonyl cleavage reactions decreases substantially in the case of benzil (15, Entry 3), which affords benzoic acid in 14% and 1% yield following exposure to 2 and 4, respectively.

The nature of series [6]: NHC-mediated cleavage of bis-alkyl diketone 14, Method B. To be noted: LCMS, with respect to dicarbonyl. In kind it is biochemical. As for the experimental part:
as §1, §3

“Also recorded” adds a separate entry of the source. Marks after values point to notes of the source that are not given here.

On to `Cc1sc[n+](CC(=O)c2ccccc2)c1C.[Cl-]` [Compound 2], for which the “% Yield of cycloadduct 19 from substrate 16” value in series [1] is 55^b %. Moreover, in the series with circulating stored RBCs, the “Cell survival of transfused stored RBCs versus untreated stored blood” value was “two-fold increase; also recorded: twofold increase”. The “Stability of NHC precursor under the reaction conditions” value in series [2] is given as “disappear from solution”. For the same compound, the “Benzoic acid formation from 3 (in words)” value in series [3] (Method B screen of NHC precursors) is on record as “highest overall yield”. For the same compound, the “Combined % Yield (PhCO2H)” value in series [3] (co-solvent MeCN, Method B, LCMS, with respect to dicarbonyl) is listed as 61%. The “Combined % Yield (PhCO2H, PhCO2Me)” value in series [4] came out at 54%. The “% Yield of PhCO2H from substrate 15 (benzil)” value in series [5] is 14%. Also, the “% Yield of acid 18 from substrate 14” value in series [6] is reported as 82%.
